Measurements as given in US20180185313A1, “COMPOSITION COMPRISING AMINO ACID AND CYCLIC DIPEPTIDE” (SUNTORY HOLDINGS LIMITED, priority 2015, published 2018).

How the values were obtained:
[1] = target: T1, angiotensin-converting enzyme (Homo sapiens, UniProt P12821); assay: Angiotensin I-converting enzyme-inhibiting activity by ACE Kit-WST (Dojindo Laboratories), residual activity; format: biochemical; settings: for angiotensin-converting enzyme-inhibiting action brought about by the amino acid on addition of the cyclic dipeptide: cyclic dipeptide added in a given amount to the amino acid, summary of Tables 1 to 4
T1 construct: purchased Dojindo Laboratories ACE Kit-WST
Method: The enhancing effect of a cyclic dipeptide on the angiotensin-converting enzyme-inhibiting action of an amino acid was evaluated. Specifically, as for the inhibiting effects of amino acids and cyclic dipeptides, angiotensin I-converting enzyme-inhibiting activities were measured by using ACE Kit-WST (Dojindo Laboratories) according to the instruction manual attached to the kit. The amino acids were studied at a concentration of 1000 μM, 3000 μM, or 5000 μM, and the cyclic dipeptides were studied at a concentration of 20 μM, 50 μM, 100 μM, 250 μM, or 500 μM. Their-inhibiting activities were evaluated as the residual activity of angiotensin-converting enzyme calculated according to expression 1 given below. A control supplemented with distilled water instead of the aqueous cyclic dipeptide solution was used. Chemically synthesized samples were used as the cyclic dipeptides.
Residual activity (%)=(Absorbance at 450 nm from the cyclic dipeptide-added group/Absorbance from 450 nm from the control)×100 (Expression 1)

[2] = system: spontaneously hypertensive rats; settings: oral administration; cited from earlier work
[3] = amino acid alone, no cyclic dipeptide

T1 sequence (P12821 30-1306, species assumed): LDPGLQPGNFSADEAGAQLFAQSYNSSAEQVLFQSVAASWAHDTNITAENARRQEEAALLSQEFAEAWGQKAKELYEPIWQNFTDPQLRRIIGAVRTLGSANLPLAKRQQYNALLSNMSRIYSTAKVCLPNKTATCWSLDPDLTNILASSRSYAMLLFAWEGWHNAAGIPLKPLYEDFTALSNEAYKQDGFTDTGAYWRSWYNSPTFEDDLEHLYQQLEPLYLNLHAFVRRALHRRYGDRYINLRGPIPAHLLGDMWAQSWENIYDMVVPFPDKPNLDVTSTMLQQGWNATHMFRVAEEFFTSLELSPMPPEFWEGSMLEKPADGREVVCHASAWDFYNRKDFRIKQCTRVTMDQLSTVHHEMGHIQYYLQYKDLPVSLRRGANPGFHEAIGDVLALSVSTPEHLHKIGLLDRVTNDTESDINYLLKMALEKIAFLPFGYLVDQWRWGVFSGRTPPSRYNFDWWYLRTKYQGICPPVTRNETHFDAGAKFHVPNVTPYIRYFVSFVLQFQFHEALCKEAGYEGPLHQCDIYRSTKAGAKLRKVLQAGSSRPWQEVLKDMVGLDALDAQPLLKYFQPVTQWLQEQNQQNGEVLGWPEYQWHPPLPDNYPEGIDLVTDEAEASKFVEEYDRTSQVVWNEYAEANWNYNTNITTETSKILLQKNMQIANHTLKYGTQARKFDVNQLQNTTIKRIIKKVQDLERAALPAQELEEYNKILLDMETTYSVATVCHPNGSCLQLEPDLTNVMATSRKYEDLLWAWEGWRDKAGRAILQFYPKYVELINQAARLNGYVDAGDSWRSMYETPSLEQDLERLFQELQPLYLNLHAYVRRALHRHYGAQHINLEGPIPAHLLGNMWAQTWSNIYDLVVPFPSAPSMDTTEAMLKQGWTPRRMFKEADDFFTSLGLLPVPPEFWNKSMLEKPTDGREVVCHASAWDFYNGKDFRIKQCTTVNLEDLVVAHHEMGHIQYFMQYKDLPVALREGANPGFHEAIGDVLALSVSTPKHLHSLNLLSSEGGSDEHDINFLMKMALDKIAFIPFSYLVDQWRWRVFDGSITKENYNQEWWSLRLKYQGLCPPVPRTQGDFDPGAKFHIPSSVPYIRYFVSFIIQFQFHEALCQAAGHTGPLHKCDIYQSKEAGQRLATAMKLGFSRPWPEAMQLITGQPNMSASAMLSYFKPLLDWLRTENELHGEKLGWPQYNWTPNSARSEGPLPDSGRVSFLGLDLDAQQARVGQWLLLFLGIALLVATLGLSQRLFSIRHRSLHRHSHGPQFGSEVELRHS

Molecule	angiotensin-converting enzyme-inhibiting action brought about by the amino acid on addition of the cyclic dipeptide [1]	remaining activity at 1000 µM [1, 3]	remaining activity at 5000 µM [1, 3]	other results
cyclo-arginyl-tyrosine [Cyclo(Arg-Tyr)]	enhanced			
N=C(N)NCCC[C@H](N)C(=O)O [Arginine, arginine]		84.8%	60.2%	
cyclo-glutamyl-histidine [Cyclo(Glu-His)]	enhanced			
N[C@@H](Cc1c[nH]cn1)C(=O)O [histidine]				mean arterial pressure [2]: decrease

Continued, in another order:

angiotensin-converting enzyme-inhibiting action brought about by the amino acid on addition of the cyclic dipeptide [1]	remaining activity at 1000 µM [1, 3]	remaining activity at 5000 µM [1, 3]	Molecule	other results
enhanced			cyclo-isoleucyl-serine [Cyclo(Ile-Ser)]	
	94%		N[C@@H](Cc1ccc(O)cc1)C(=O)O [Tyrosine, tyrosine]	remaining activity at 3000 µM ([1]; amino acid alone, 3000 μM, no cyclic dipeptide): 90.6%
	86.6%	69%	C[C@@H](O)[C@H](N)C(=O)O [Threonine, threonine]	
	83.2%	43.3%	CC(C)C[C@H](N)C(=O)O [Leucine, leucine]	
